Source: ChEMBL document CHEMBL5154743, “Bicyclic Heterocyclic Replacement of an Aryl Amide Leading to Potent and Kinase-Selective Adaptor Protein 2-Associated Kinase 1 Inhibitors” (J Med Chem, 2022)

What was measured:
[1] = Permeability of the compound at pH 7.4 by PAMPA; assay type: ADME; conditions: read-out: permeability
[2] = Permeability of the compound at pH 5.5 by PAMPA; assay type: ADME; conditions: read-out: permeability
[3] = Permeability across basolateral to apical side in human Caco-2 cells incubated for 2 hrs by LC-MS/MS analysis; assay type: ADME, cell-based; conditions: for Papp B→A at 2 h: Caco-2, read-out: permeability
[4] = Plasma concentration in C57BL6 mouse at 60 mg/kg, sc by LC-MS/MS analysis; assay type: ADME, organism-based; conditions: in vivo
[5] = Brain concentration in C57BL6 mouse at 60 mg/kg, sc by LC-MS analysis; assay type: ADME, organism-based; conditions: in vivo, read-out: Ct
[6] = Ratio of drug concentration in brain to plasma in C57BL6 mouse at 60 mg/kg, sc; assay type: ADME, organism-based; conditions: read-out: BPR
[7] = Unbound brain to plasma concentration ratio in C57BL6 mouse at 60 mg/kg, sc; assay type: ADME, organism-based; conditions: read-out: K(p,uu,brain)
[8] = biological target: T1, AP2-associated protein kinase 1 (Homo sapiens, UniProt Q2M2I8)
T1 sequence (Q2M2I8 whole entry): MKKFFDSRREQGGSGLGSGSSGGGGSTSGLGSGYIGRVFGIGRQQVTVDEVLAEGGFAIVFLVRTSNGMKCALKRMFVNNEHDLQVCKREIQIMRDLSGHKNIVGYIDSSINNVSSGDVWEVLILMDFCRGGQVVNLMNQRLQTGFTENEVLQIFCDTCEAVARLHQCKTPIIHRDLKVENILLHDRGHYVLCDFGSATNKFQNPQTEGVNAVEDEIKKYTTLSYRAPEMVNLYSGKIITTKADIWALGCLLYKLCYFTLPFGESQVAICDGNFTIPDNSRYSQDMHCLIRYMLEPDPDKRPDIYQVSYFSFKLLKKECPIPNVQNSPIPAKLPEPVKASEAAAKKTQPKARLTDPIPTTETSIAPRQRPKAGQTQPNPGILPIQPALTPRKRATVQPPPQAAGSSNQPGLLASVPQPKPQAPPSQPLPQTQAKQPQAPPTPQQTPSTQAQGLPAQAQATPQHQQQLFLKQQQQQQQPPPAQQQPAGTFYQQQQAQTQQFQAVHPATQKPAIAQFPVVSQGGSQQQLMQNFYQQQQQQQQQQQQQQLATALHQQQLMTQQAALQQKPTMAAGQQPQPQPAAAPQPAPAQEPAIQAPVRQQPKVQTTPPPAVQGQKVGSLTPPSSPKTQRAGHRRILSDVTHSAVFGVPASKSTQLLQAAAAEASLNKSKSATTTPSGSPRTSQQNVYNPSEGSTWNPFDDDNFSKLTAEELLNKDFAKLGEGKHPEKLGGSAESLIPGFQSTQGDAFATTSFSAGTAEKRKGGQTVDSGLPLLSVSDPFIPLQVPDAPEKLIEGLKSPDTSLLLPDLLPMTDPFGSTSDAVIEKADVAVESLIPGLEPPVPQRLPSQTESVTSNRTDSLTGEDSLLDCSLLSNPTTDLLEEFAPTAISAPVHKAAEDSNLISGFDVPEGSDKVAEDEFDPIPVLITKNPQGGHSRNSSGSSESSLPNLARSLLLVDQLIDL

[9] = Metabolic stability in rat liver microsomes assessed as parent compound remaining at 0.5 uM incubated for 10 mins in presence of NADPH by LC-MS/MS analysis; assay type: ADME, Microsome; conditions: read-out: Stability
[10] = Metabolic stability in human liver microsomes assessed as parent compound remaining at 0.5 uM incubated for 10 mins in presence of NADPH by LC-MS/MS analysis; assay type: ADME, Microsome; conditions: read-out: Stability
[11] = biological target: T1, AP2-associated protein kinase 1; test: Inhibition of full length human AAK1 expressed in HEK293F incubated for 3 hrs by Western blot analysis; assay type: cell-based
[12] = Metabolic stability in mouse liver microsomes assessed as parent compound remaining at 0.5 uM incubated for 10 mins in presence of NADPH by LC-MS/MS analysis; assay type: ADME, Microsome; conditions: read-out: Stability
[13] = Plasma protein binding in human assessed as unbound fraction at 10 uM incubated for 5 hrs by rapid equlibrium dialysis based LC-MS/MS method
[14] = Plasma protein binding in rat assessed as unbound fraction at 10 uM incubated for 5 hrs by rapid equlibrium dialysis based LC-MS/MS method
[15] = Plasma protein binding in mouse assessed as unbound fraction at 10 uM incubated for 5 hrs by rapid equlibrium dialysis based LC-MS/MS method
[16] = Permeability across apical to basolateral side in human Caco-2 cells incubated for 2 hrs by LC-MS/MS analysis
[17] = biological target: BMP-2-inducible protein kinase (Homo sapiens, UniProt Q9NSY1); test: Inhibition of BIKE (unknown origin)
BMP-2-inducible protein kinase, sequence (Q9NSY1 whole entry): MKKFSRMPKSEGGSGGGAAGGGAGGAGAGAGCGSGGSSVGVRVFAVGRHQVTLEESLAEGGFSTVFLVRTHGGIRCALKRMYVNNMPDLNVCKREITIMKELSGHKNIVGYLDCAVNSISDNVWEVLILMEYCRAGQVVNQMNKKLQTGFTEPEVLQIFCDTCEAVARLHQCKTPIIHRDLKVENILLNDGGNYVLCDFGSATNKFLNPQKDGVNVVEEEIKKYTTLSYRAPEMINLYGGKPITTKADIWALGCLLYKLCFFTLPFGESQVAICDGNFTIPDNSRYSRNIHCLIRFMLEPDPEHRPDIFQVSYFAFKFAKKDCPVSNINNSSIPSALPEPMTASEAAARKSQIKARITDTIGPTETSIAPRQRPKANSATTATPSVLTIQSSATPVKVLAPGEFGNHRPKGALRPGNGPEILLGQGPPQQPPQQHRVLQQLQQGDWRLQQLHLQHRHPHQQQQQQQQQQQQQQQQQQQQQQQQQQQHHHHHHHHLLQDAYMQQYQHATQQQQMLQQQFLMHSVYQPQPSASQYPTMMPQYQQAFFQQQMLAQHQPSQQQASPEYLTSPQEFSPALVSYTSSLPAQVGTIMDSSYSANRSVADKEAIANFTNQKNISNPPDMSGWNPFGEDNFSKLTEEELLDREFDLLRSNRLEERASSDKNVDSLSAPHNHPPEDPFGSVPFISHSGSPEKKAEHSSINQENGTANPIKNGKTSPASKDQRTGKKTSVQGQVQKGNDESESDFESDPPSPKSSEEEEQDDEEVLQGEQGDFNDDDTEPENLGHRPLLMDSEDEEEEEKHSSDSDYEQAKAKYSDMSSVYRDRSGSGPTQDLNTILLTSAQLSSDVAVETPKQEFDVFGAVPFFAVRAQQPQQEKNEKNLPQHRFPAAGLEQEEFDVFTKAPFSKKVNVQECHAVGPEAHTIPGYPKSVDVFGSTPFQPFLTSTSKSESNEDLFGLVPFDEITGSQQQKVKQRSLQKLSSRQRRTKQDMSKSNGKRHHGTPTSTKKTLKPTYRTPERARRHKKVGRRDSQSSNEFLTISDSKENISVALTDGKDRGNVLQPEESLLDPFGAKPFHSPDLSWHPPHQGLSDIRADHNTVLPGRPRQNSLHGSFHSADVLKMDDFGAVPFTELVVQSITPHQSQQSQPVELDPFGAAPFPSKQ

[18] = biological target: T2, Serine/threonine-protein kinase Chk1 (Homo sapiens, UniProt O14757); test: Inhibition of CHK1 (unknown origin)
T2 sequence (O14757 whole entry): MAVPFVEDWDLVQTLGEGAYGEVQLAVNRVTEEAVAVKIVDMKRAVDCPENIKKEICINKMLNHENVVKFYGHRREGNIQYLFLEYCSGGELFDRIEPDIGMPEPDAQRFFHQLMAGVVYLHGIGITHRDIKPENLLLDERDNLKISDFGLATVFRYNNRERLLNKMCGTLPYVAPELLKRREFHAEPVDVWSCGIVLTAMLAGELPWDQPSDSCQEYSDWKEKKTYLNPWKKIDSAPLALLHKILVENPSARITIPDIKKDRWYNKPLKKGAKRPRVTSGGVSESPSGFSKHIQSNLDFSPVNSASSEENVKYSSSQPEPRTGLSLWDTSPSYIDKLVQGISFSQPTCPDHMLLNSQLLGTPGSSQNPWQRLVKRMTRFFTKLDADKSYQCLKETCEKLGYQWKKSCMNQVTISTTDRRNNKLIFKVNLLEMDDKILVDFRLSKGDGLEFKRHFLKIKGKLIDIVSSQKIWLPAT

[19] = biological target: Glycogen synthase kinase-3 beta (Homo sapiens, UniProt P49841); test: Inhibition of GSK3beta (unknown origin)
Glycogen synthase kinase-3 beta, sequence (P49841 whole entry): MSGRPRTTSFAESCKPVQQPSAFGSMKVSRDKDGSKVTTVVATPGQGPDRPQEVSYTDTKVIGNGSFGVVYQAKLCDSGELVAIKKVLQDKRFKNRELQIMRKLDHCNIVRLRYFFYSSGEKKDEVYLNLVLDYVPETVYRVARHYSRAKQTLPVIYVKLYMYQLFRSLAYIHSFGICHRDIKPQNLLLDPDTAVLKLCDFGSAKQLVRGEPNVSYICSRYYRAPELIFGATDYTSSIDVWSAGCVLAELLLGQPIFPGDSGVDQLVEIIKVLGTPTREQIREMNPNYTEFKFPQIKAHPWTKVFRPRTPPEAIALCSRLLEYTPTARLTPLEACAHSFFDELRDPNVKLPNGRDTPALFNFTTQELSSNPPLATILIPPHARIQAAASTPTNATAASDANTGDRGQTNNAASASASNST

[20] = biological target: MAP kinase-interacting serine/threonine-protein kinase 1 (Homo sapiens, UniProt Q9BUB5); test: Inhibition of MNK1 (unknown origin)
MAP kinase-interacting serine/threonine-protein kinase 1, sequence (Q9BUB5 whole entry): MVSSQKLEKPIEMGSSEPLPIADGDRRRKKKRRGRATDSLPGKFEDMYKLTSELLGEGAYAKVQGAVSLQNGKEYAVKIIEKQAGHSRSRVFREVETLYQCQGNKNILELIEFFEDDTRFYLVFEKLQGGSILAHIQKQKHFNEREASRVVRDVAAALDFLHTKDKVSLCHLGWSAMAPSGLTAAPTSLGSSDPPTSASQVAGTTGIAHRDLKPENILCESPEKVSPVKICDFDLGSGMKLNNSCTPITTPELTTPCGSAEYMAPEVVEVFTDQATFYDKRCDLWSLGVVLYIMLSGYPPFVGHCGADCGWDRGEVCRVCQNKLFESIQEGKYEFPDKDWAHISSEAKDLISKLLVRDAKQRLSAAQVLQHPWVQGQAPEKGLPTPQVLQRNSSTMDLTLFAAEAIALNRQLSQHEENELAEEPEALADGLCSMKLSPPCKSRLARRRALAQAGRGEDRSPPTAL

[21] = Ratio of drug concentration in brain to plasma in C57BL6 mouse at 30 mg/kg, sc; assay type: ADME, organism-based; conditions: read-out: BPR
[22] = Plasma concentration in C57BL6 mouse at 30 mg/kg, sc by LC-MS/MS analysis; assay type: ADME, organism-based; conditions: in vivo
[23] = Brain concentration in C57BL6 mouse at 30 mg/kg, sc by LC-MS analysis; assay type: ADME, organism-based; conditions: in vivo, read-out: Ct
[24] = Unbound brain to plasma concentration ratio in C57BL6 mouse at 30 mg/kg, sc; assay type: ADME, organism-based; conditions: read-out: K(p,uu,brain)
[25] = biological target: T3, Cyclin-G-associated kinase (Homo sapiens, UniProt O14976); test: Inhibition of GAK (unknown origin)
T3 sequence (O14976 whole entry): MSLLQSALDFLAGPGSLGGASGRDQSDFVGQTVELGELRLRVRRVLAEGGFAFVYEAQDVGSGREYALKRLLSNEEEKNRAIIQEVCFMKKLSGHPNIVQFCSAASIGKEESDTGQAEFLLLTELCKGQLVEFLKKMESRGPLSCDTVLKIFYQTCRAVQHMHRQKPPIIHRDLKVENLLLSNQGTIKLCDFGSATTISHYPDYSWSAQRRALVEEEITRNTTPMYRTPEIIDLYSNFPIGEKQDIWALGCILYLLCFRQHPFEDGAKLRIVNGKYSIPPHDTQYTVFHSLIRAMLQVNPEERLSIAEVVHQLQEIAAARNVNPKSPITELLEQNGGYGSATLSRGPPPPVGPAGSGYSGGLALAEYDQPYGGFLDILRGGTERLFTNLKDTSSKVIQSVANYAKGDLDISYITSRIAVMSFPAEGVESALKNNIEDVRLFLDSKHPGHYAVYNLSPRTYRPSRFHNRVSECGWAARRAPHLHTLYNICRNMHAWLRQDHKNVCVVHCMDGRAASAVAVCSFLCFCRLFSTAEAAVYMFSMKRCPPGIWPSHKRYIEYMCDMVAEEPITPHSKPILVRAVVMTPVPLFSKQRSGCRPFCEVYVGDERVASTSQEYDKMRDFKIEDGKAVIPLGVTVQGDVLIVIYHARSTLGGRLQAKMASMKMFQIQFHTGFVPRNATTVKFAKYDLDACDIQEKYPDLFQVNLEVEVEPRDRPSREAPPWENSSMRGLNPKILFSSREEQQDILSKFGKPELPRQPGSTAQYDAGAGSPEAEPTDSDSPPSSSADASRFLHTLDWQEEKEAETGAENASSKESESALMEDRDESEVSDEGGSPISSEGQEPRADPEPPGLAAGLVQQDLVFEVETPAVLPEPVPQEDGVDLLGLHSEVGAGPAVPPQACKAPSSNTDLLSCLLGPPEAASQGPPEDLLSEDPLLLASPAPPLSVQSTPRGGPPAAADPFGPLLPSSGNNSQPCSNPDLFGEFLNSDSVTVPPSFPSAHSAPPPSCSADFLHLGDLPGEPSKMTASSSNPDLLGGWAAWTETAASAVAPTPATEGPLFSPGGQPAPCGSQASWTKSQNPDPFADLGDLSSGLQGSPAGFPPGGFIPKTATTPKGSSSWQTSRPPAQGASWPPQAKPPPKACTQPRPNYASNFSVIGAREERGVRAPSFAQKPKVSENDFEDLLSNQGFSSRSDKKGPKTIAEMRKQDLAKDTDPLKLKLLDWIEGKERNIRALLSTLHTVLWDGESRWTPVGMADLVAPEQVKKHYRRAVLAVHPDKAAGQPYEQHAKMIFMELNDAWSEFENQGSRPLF

[26] = biological target: Serine/threonine-protein kinase 16 (Homo sapiens, UniProt O75716); test: Inhibition of MPSK1 (unknown origin)
Serine/threonine-protein kinase 16, sequence (O75716 whole entry): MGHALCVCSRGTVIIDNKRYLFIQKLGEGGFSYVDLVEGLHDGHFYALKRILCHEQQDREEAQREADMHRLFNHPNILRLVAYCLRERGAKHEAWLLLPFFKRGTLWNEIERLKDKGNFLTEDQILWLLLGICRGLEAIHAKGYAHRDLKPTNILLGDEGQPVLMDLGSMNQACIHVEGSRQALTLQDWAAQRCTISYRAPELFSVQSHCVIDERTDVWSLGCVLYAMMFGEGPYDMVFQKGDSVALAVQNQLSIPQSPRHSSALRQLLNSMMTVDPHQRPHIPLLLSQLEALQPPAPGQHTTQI

SMILES	Papp [1] [×10⁻⁶ cm/s]	Papp [2] [×10⁻⁶ cm/s]	IC50 [8] [nM]	remaining at 10 min, 0.5 µM [9] [%]	remaining at 10 min, 0.5 µM [10] [%]	IC50 [11] [nM]	remaining at 10 min, 0.5 µM [12] [%]	fraction unbound at 5 h, 10 µM [13]	fraction unbound at 5 h, 10 µM [14]	fraction unbound at 5 h, 10 µM [15]	Papp A→B at 2 h [16] [×10⁻⁶ cm/s]	Papp B→A at 2 h [3] [×10⁻⁶ cm/s]	further results
CC(C)C[C@@H](N)C(=O)Nc1ccc(-c2cnco2)c(OC(F)F)c1	91.8	96.7											permeability ([3]; caco-2, 2 h): 11.3 10^-6 cm/s; concentration [4]: 41 µM; concentration [5]: 27 µM; Kp [6]: 0.7; Kp uu [7]: 0.5
CCNc1nc(C(N)CC(C)C)nc2ccc(-c3cnco3)cc12 (centres undefined)			1100										
CC(C)C[C@H](N)c1cc(C#N)c2cc(-c3ccncc3)ccc2n1	96.9	112	5.8	50	72	19	56	0.18	0.054	0.14	11.4	4.4	IC50 [17]: 161 nM; IC50 [18]: 998 nM; IC50 [19]: 112 nM; IC50 [20]: 57 nM; Kp [21]: 1.5; concentration [22]: 16 µM; concentration [23]: 23 µM; Kp uu [24]: 0.4; IC50 [25]: > 1000 nM; IC50 [26]: > 1000 nM
CC(C)C[C@@H](N)c1cc(C#N)c2cc(-c3ccncc3)ccc2n1	30.7	40	11	43	83	108	77	0.18	0.045	0.13	13.5	10.3	Kp [21]: 1.3; concentration [22]: 23 µM; concentration [23]: 29 µM; Kp uu [24]: 0.4
CC(C)CC(N)c1ccc2cc(-c3ccncc3)ccc2n1 (centres undefined)			21										
CC(C)CC(N)c1cc(C#N)c2cc(-c3ccncc3)ccc2n1 (centres undefined)			7.3										

Continued, in another order:

Papp [1] [×10⁻⁶ cm/s]	Papp [2] [×10⁻⁶ cm/s]	IC50 [8] [nM]	SMILES	remaining at 10 min, 0.5 µM [9] [%]	remaining at 10 min, 0.5 µM [10] [%]	IC50 [11] [nM]	remaining at 10 min, 0.5 µM [12] [%]	fraction unbound at 5 h, 10 µM [13]	fraction unbound at 5 h, 10 µM [14]	fraction unbound at 5 h, 10 µM [15]	Papp A→B at 2 h [16] [×10⁻⁶ cm/s]	Papp B→A at 2 h [3] [×10⁻⁶ cm/s]	further results
		95	CCc1nc([C@H](N)CC(C)C)nc2cc(OC)c(-c3cnco3)cc12										
90.7	93.5	30	CCc1nc([C@@H](N)CC(C)C)nc2ccc(-c3cnco3)cc12	26	62	49	56	0.32	0.25	0.11	18.4	15.6	
78.5	80.3	12	CCc1nc([C@@H](N)CC(C)C)nc2cc(OC)c(-c3cnco3)cc12	43	83	34	47	0.17	0.077	0.1	13.4	14.2	
		110	COc1cc2nc(C(N)CC(C)C)ncc2cc1-c1cnco1 (centres undefined)										
